Earlier results, collected in EP4140474A1, “NUT[…] THE REDUCTION OF OSTE[…] AND INFLAMMATION” (Theracell Advanced Biotechnology S.A., priority 2021, dated 2023).

Tests used:
[1] = biological target: lipoxygenase
[2] = biological target: MMP13 (Homo sapiens, UniProt P45452); details: selective inhibitor of MMP13

| Structure (SMILES) | IC50 [1] [nM] | IC50 [2] [nM] |
| --- | --- | --- |
| Oc1ccc(C=Cc2cc(O)cc(O)c2)cc1 [resveratrol] | 2700 | – |
| O=C(/C=C/c1ccc(O)c(O)c1)O[C@H](Cc1ccc(O)c(O)c1)C(=O)O [rosmarinic, rosmarinic acid] | – | 2900 |
